Experimental data published in US7858613B2, “Substituted benzo-condensed cycloheptanone derivatives and their use for producing drugs” (Gruenenthal GmbH, priority 2005, dated 2010).

Key:
human CB2 receptor = molecular target: T1, human CB2 receptor (Homo sapiens, UniProt P34972); test: Affinity for cannabinoid receptor CB2, [3H]-CP 55,940 displacement on HEK-293EBNA membranes; details: 10 μM test substance; 0.33 nM [3H]-CP 55,940; percent inhibition of specific binding
T1 construct: expressed in transfected cells; host or cells: HEK-293EBNA cells (membranes)
T1 sequence (P34972 whole entry): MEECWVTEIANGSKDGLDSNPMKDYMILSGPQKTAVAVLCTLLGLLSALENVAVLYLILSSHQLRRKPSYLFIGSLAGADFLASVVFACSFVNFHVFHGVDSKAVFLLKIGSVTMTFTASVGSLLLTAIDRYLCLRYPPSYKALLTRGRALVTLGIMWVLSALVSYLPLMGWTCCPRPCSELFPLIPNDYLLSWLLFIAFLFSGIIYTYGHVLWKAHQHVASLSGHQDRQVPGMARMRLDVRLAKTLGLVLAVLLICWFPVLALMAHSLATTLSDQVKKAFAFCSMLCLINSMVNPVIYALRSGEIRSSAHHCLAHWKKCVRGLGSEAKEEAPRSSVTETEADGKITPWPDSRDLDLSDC
Excerpt: VI. Determination of the Affinity for the Cannabinoid Receptor CB2 (CB2 Receptor):
To determine the affinity of the inventive compounds for the cannabinoid receptor, membranes from human recombinant HEK-293EBNA cells were used, which had been transfected stably with the human CB2 receptor. The radioligand used was tritium-labeled 5-(1,1-dimethylheptyl)-2-(5-hydroxypropyl)cyclohexyl)-1-alpha,2-beta,5-alpha)phenol ([3]H—CP 55,940 with 103.4 Ci/mmol, 1 mCi/ml). The determination was effected in a test buffer composed of 50 mM Tris-HCl, 2.5 mM EDTA, 5 mM MgCl2 and 1.0 mg/ml of fatty acid-free BSA. The test substances were each dissolved in DMSO.
The affinity of the inventive compounds for the CB2 receptor is determined by their ability to displace [3]H—CP 55,940 from CB2 receptors in membranes from HEK-293EBNA cells. To this end, in each case 8 μg of the membranes (20 μl of a solution from membranes in a concentration of 400 μg/ml) are incubated in wells on a microtiter plate with a 0.33 nM solution of ^[3]H-CP […] (120 Ci/mmol) in a total volume of test buffer of 200 μl at 30° C. for 90 minutes.
Subsequently, either the test substances or WIN 55212-2 to determine the unspecific binding, in each case dissolved in DMSO, are added to the wells so as to result in each case in a concentration of the corresponding substances of 10 μM.
Incubation at 30° C. is continued for a further 40 minutes. The binding reaction was ended by rapid filtration through GF/C filter paper which had been treated with 0.05% PEI using a Brandel cell harvester with 96 wells. The filters are washed nine times with 0.5 ml of ice-cooled washing buffer ([…] Tris-HCl, 5 mM MgCl2, 2.5 mM EDTA, 2% BSA, pH 7.4), air-dried and placed in scintillation fluid, and the radioactivity is determined with the aid of a scintillation counter.
The percentage displacement of the radioactive ligand ^[3]H-CP 55,940 from its binding to the CB2 receptor is reported as percent inhibition of the specific binding.

human CB1 receptor = molecular target: T2, human CB1 receptor (Homo sapiens, UniProt P21554); test: Study on the human CB1 receptor, [3H]CP55,940 displacement on recombinant membranes; format: binding; details: 10 μM test substance; 1 nM [3H]CP55,940; human recombinant cell membranes
T2 construct: purchased Perkin Elmer RBHCB1M
T2 sequence (P21554 whole entry): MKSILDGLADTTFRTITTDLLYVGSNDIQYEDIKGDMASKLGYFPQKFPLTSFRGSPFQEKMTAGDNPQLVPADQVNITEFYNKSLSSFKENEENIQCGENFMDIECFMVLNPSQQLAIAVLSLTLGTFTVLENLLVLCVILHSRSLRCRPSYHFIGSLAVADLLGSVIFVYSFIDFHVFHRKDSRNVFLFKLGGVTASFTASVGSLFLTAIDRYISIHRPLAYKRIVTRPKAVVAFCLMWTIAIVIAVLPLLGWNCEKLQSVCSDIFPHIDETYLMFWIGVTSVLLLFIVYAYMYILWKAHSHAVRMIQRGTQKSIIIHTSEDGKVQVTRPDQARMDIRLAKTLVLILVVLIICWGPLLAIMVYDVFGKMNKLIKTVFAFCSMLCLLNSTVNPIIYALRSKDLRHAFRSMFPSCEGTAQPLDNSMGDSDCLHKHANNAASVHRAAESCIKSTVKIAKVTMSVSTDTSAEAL
Procedure: V. Functional Study on the Human CB1 Receptor
50 mM TRIS (from Fluka, Cat. No. 93349); 2.5 mM EDTA (from Fluka Cat. No. 03680); 5 mM MgCl2 (from Merck, Cat. No. 1.05833); 0.5 mg/ml BSA (from Sigma Cat. No. A-2153)
The membranes (RBHCB1M, from Perkin Elmer (human recombinant cell membranes)) were supplied in aliquots of 1 ml each in dry ice and stored at −80° C. The protein concentration of the batches was around 6 mg/ml. For the test, in each case 1 ml was thawed rapidly and diluted with 7 ml of incubation buffer (1:8). 20 μl of this dilution were used in the test. This corresponded to a protein content of approx. 15 μg in the batch.
MTP from Costar® of the “U type” (assay MTP; Cat. No. 3794) was used. The pipetting sequence is reproduced in Table 1 below.
After the pipetting operation had ended, a lid was placed on the MTP and the incubation was effected at 25° C. for 90 min.
Subsequently, the samples were removed by suction with the aid of a Brandel cell harvester (model MPXRI-96T) through a GF/B Unifilter MTP (from Packard, Cat. No. 6005177) presoftened with 0.05% PEI. The samples were washed twice with 200 ml of ice-cooled incubation buffer per 96-well MTP. Thereafter, the plate was dried in a drying cabinet +60° C. for 1 h. […] After a wait time of 1 h, the plate was analyzed on a “Trilux” from Wallac.

inhibition at 10 µM (human CB2 receptor) [%] | inhibition at 10 µM (human CB1 receptor) [%] | Compound
74.6 | 42 | O=C(Nc1ccccc1)OCC1(COC(=O)Nc2ccccc2)CCSc2ccccc2C1=O [Example Compound 2, Phenylcarbamic acid 4-(phenylcarbamoyloxymethyl)-5-oxo-2,3,4,5-tetrahydro-benzo[b]thiepin-4-ylmethyl ester]
76.2 | 47 | O=C(NC1CCCCC1)OCC1(COC(=O)NC2CCCCC2)CCCc2ccccc2C1=O [Example Compound 8, Cyclohexylcarbamic acid 6-(cyclohexylcarbamoyloxymethyl)-5-oxo-6,7,8,9-tetrahydro-5H-benzocyclohepten-6-ylmethyl ester]
